Measurements reported in patent USRE34918E, “Azaazulene compounds which are useful as antiallergic and antiinflammatory agents” (Kaken Pharmaceutical Co., Ltd., priority 1988, dated 1995).
In brackets after ≈: the same amount, converted by molar mass. Structures can show the parent of a compound that is named as a salt.

Tests used:
[1] = tested on: histamine release from rat mast cell; test: Inhibitory activity against histamine release from rat mast cell; assay type: cell-based; settings: 10 μg/ml, read-out: Inhibitory rate against histamine release
Method: An anti-dinitrophenylated-ovalbumin (anti DNP-OVA) rat antiserum having 800 of PCA titer in homologous passive cutaneous anaphylaxis reaction in rats for 48 hours was diluted double with physiological saline, and 1 ml of diluted antiserum was injected intraperitoneally into rats to be passively sensitized. On the next day, peritoneal exudation cell (hereinafter referred to as "PEC") was collected. The collected PEC was washed with a medium containing 0.1% BSA, and 1.5×10^5 of the PEC were added to each test tube. AFter incubation at 37° C. for 10 minutes, 50 μl of test compound solution in a same medium was added thereto. After 30 seconds, 50 μl of antigen solution (DVA-OVA 100 μg/ml) was further added thereto to give the total amount of 500 μl of the reaction mixture, and histamine release reaction was induced. After 10 minutes, 1 ml of physiological saline with cooled Tris buffered solution containing 1 mM EDTA were added thereto to stop the reaction. After centrifugation, the amount of histamine in supernatant was determined by fluorescence method according to the method of Shore et al [cf. J. Pharmacol. Exp. Ther., 127, 182 (1959)]. Inhibition rate against histamine release was calculated according to the following equation.
Inhibition rate against histamine release [formula] M: Amount of histamine in supernatant under addition of antigen and non-addition of test compound
S: Amount of histamine in supernatant under addition of antigen and test compound
B: Amount of histamine in supernatant under non-addition of antigen and test compound.
The test compound was used in a concentration of 10 μg/ml.

[2] = tested on: smooth musculus trachealis; test: Relaxant activity of smooth musculus trachealis in guinea pig; parameters: species or system guinea pig (male Hartley); settings: Cavia porcellus; tracheal chain strips, 37° C.; read-out: Concentration for 50% relaxation
Method: Male Hartley guinea pigs weighing 350 to 550 g were bleed to death, and immediately the tracheae were extirpated. According to the method of Takagi et al [cf. Chem. Pharm. Bull., 8, 716 (1958)], tracheal chain strips was prepared, and the sample was suspended on Magnus apparatus under addition of load of 0.5 g. The test was carried out at 37° C. of liquid temperature. After position of tonus was examined with histamine (10^-6 g/ml) and isoproterenol (10^-7 g/ml), the test compound dissolved in a mixture of dimethyl sulfoxide and physiological saline was added thereto, and the test compound was investigated with respect to the effect on smooth musculus trachealis. Theophylline was used as a positive comparative drug. The relaxation and the contraction of smooth musculus trachealis were recorded on servocorder (SR 6342: commercially available from Watanabe Instruments Corp.) by connecting Isotonic Transducer (TD-1125: commercially available from Nihon Kohden Kogyo Co., Ltd.) to a balancing box.

[3] = target: T1, 5-lipoxygenase (Cavia porcellus, UniProt A0A286X958); test: 5-lipoxygenase inhibiting activity in guinea pig; assay type: biochemical; settings: read-out: Inhibition rate against 5-lipoxygenase activity
T1 construct: 5-lipoxygenase was prepared with polymorphonuclear leukocyte obtained from peritoneal cavity; endogenous in cells; host or cells: guinea pig peritoneal polymorphonuclear leukocytes (casein-elicited)
T1 sequence (A0A286X958 1-674): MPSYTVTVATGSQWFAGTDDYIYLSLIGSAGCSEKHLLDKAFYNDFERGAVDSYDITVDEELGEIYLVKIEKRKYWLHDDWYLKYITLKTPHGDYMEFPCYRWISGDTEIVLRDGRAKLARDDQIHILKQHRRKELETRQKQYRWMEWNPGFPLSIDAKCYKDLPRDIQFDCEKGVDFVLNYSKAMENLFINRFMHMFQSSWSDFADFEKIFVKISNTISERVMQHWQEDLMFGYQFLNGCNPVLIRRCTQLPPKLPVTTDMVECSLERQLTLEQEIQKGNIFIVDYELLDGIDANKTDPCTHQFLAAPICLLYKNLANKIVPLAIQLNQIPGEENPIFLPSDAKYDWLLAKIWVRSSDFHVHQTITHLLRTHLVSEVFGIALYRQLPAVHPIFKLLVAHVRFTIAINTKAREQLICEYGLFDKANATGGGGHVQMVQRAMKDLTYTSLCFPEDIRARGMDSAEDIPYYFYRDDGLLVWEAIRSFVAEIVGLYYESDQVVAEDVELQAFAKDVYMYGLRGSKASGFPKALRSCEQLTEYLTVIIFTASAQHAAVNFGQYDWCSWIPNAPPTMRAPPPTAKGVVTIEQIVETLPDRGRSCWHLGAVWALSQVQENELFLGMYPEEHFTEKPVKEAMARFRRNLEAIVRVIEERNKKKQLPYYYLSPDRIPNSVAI
Method: The test was carried out according to the method of Ochi [cf. J. Biol. Chem., 258, 5754-5758 (1983)]. Two % casein solution in saline was injected intraperitoneally into guinea pigs in an amount of 1/10 of body weight. After 16 hours, 5-lipoxygenase was prepared with polymorphonuclear leukocyte obtained from peritoneal cavity. Test compound and 5-lipoxygenase were pre-incubated at 30° C. for 10 minutes, CaCl2 (calcium chloride) and ^14 C-arachidonic acid were added thereto, and the resulting mixture was incubated for 20 minutes. A mixture of ethyl acetate/methanol/0.2M citric acid=30/4/1 (by volume) was added thereto to stop the reaction. After centrifugation, the organic solvent layer was spotted on a plate for thin layer chromatography and developed. Effect of the test compound was determined from the amount of ^14 C-5-hydroxyeicosatetraenoic acid (hereinafter referred to as "5-HETE") formed from ^14 C-arachidonic acid. Radioactivity of 5-HETE position was measured with a liquid scintillation counter.
Inhibition rate against 5-lipoxygenase activity was calculated according to the following equation.
Inhibition rate against 5-lipoxygenase activity [formula] A: Value of radioactivity in the control group B: Value of radioactivity in the test compound group
Each test compound was used in a concentration of 10 μM.

| EC50 [2] | inhibition at 10 µM [3] | SMILES | inhibition at 10 µg/mL [1] |
| --- | --- | --- | --- |
| 47 µg/mL (≈ 184 µM) |  | CC(C)c1cccc2[nH]c(=O)c(-c3nnn[nH]3)c-2c1 [Example 1, 5-Iso-propyl-3-(5-tetrazolyl)-1-azaazulane-2-one] | 78.6% |
| 25 µg/mL (≈ 97.9 µM) |  | CC(C)c1cccc2c(-c3nnn[nH]3)c(=O)[nH]c-2c1 [Example 2, 7-Iso-propyl-3-(5-tetrazolyl)-1-azaazulane-2-one] | 81.4% |
| 13.1 µg/mL (≈ 32.6 µM) | 27% | CC(C)c1cccc2n(CCCCCc3ccccc3)c(=O)c(-c3nnn[nH]3)c-2c1 [Example 6, 5-Iso-propyl-1-(5-phenylpentyl)-3-(5-tetrazolyl)-1-azaazulane-2-one] | 6.3% |
|  | 60.6% | CC(C)c1cccc2c(-c3nnn[nH]3)c(=O)n(CCCCCc3ccccc3)c-2c1 [Example 7, 7-Iso-propyl-1-(5-phenylpentyl)-3-(5-tetrazolyl)-1-azaazulane-2-one] | 10.6% |
| 12.4 µg/mL (≈ 35.8 µM) | -9.4% | CC(C)c1cccc2n(Cc3ccccn3)c(=O)c(-c3nnn[nH]3)c-2c1 [Example 13, 5-Iso-propyl-1-(2-pyridylmethyl)-3-(5-tetrazolyl)-1-azaazulane-2-one] | 91.5% |
| 43 µg/mL (≈ 160 µM) |  | CC(C)c1cccc2c(-c3nnn[nH]3)c(=O)n(C)c-2c1 [Example 16] | 88.3% |
| 28 µg/mL (≈ 89.9 µM) |  | CCCCn1c2cc(C(C)C)cccc-2c(-c2nnn[nH]2)c1=O [Example 18] | 86.9% |
| 44 µg/mL (≈ 141 µM) |  | CCCCn1c2cccc(C(C)C)cc-2c(-c2nnn[nH]2)c1=O [Example 19] | 83.4% |
|  | 17.3% | CC(C)c1cccc2c(-c3nn[nH]n3)c(=O)n(CCCc3ccccc3)c-2c1 [Example 29] | 99.5% |
|  | 34.9% | O=c1c(-c2nn[nH]n2)c2cccccc-2n1Cc1ccc(C(F)(F)F)cc1 [Example 35] | 54.1% |
|  | 31.7% | O=C(O)c1ccc(Cn2c3cccccc-3c(-c3nn[nH]n3)c2=O)cc1 [Example 38] | 24.4% |
|  | -7.2% | O=c1c(-c2nn[nH]n2)c2cccccc-2n1CCOc1ccccc1 [Example 43] | 65.3% |
|  | 18.3% | O=c1c(-c2nn[nH]n2)c2cccccc-2n1CSc1ccccc1 [Example 44] | 85% |
|  | 41.8% | O=c1c(-c2nn[nH]n2)c2cccccc-2n1CCc1ccc(O)c(O)c1 [Example 46] | 57.6% |
|  | -1.1% | CC(C)(C)c1cc(C(=O)Cn2c3cccccc-3c(-c3nn[nH]n3)c2=O)cc(C(C)(C)C)c1O [Example 48] | 10.4% |
| 42.3 µg/mL (≈ 94.5 µM) | -2.6% | CCCc1c(OCCCn2c3cccccc-3c(-c3nn[nH]n3)c2=O)ccc(C(C)=O)c1O [Example 49] | 62.8% |
|  | -2.2% | CC(C)c1cccc2c(-c3nn[nH]n3)c(=O)n(CCCCc3ccccc3)c-2c1 [Example 51] | 63.6% |
|  |  | CC(C)c1cccc2c(-c3nn[nH]n3)c(=O)n(Cc3ccc(Cl)cc3)c-2c1 [Example 57] | 89% |
|  |  | N#Cc1c2cccccc-2nc1NCC(c1ccccc1)c1ccccc1 [Example 58, 3-Cyano-2-(2,2-diphenylethylamino)-1-azaazulene] | 16.1% |

| EC50 [2] | inhibition at 10 µM [3] | SMILES | inhibition at 10 µg/mL [1] |
| --- | --- | --- | --- |
|  |  | N#Cc1c2cccccc-2nc1NCCC(c1ccccc1)c1ccccc1 [Example 59, 3-Cyano-2-(3,3-diphenylpropylamino)-1-azaazulene] | 14% |
|  |  | CC(C)c1cccc2c(C#N)c(N=[N+]=[N-])nc-2c1 [Example 61, 2-Azido-3-cyano-7-isopropyl-1-azaazulene] | 3.8% |
|  |  | CC(C)c1cccc2nc(NCC(=O)O)c(C#N)c-2c1 [Example 63, Sodium salt of 2-carboxymethylamino-3-cyano-5-isopropyl-1-azaazulene] | 85.3% |
|  |  | COc1ccccc1N1CCN(c2nc3cccccc-3c2C#N)CC1 [Example 64, 3-Cyano-2-(4-(2-methoxyphenyl)piperazinyl)-1-azaazulene] | -12.2% |
|  |  | N#Cc1c2cccccc-2nc1NC(c1ccccc1)c1ccccc1 [Example 65] | 17.5% |
|  |  | CCOC(=O)c1ccc(Nc2nc3cccccc-3c2C#N)cc1 [Example 66] | 20.5% |
|  |  | N#Cc1c2cccccc-2nc1Nc1ccc(C(=O)O)cc1 [Example 67] | 57% |
|  |  | COC(=O)c1ccccc1Nc1nc2cccccc-2c1C#N [Example 68] | 8.9% |
|  |  | N#Cc1c2cccccc-2nc1N1CCN(C(c2ccccc2)c2ccccc2)CC1 [Example 69] | 33.2% |
|  |  | CCOC(=O)C(Cc1ccccc1)Nc1nc2cccccc-2c1C#N (centres unmarked) [Example 70] | 4.2% |
|  |  | N#Cc1c2cccccc-2nc1NC(Cc1ccccc1)C(=O)O (centres unmarked) [Example 71] | 8.1% |
|  |  | N#Cc1c2cccccc-2nc1NC(CO)C(=O)O (centres unmarked) [Example 72] | 22.5% |
|  |  | CC(Nc1nc2cccccc-2c1C#N)C(=O)O (centres unmarked) [Example 73] | 60.8% |
|  |  | N#Cc1c2cccccc-2nc1N [Example 74] | 64.8% |
|  |  | N#Cc1c2cccccc-2nc1NCCN1CCCC1 [Example 75] | -9.6% |
|  |  | CC(C)c1cccc2nc(N=[N+]=[N-])c(C#N)c-2c1 [Example 76] | 70.5% |
|  |  | COC(=O)C1CCCN1c1nc2cccccc-2c1C#N (centres unmarked) [Example 77] | 35.7% |
|  |  | N#Cc1c2cccccc-2nc1N1CCCC1C(=O)O (centres unmarked) [Example 78] | 50.5% |
|  |  | CC(C)c1cccc2c(C#N)c(NCC(=O)O)nc-2c1 [Example 79] | 85.8% |

| SMILES | EC50 [2] | inhibition at 10 µM [3] | inhibition at 10 µg/mL [1] |
| --- | --- | --- | --- |
| Cn1c(=O)c2[nH]cnc2n(C)c1=O [theophylline, reference compound] | 6.8 µg/mL (≈ 37.7 µM) |  |  |
